This passage reports IC50 results from BindingDB's records for doi:10.1016/j.bmcl.2009.09.017 (Pfizer, 2009).

This assay in a line: Antagonist activity at P2Y12 receptor in human platelet rich plasma assessed as inhibition of ADP-induced platelet aggregation by light transmission aggregometry.

What is called IC50 is the midpoint of a concentration-inhibition curve.

Regarding `CCCCCOC(=O)N1CCN(C(=O)[C@H](CCC(=O)O)NC(=O)c2cc(SCCO)nc(-c3ccccc3)n2)CC1` [(S)-4-(6-(2-hydroxyethylthio)-2-phenylpyrimidine-4-carboxamido)-5-oxo-5-(4-(pentyloxycarbonyl)piperazin-1-yl)pentanoic acid], the IC50 was above 10000 nM.
As for `CCCCCOC(=O)N1CCN(C(=O)[C@H](CCC(=O)O)NC(=O)c2nc(-c3ccccc3)cc(N3CCOCC3)n2)CC1` [(S)-4-(4-morpholino-6-phenylpyrimidine-2-carboxamido)-5-oxo-5-(4-(pentyloxycarbonyl)piperazin-1-yl)pentanoic acid], the figure is above 10000 nM.
As for `CCCCCOC(=O)N1CCN(C(=O)[C@H](CCC(=O)O)NC(=O)c2cc(N3CC(OCC)C3)nc(-c3ccccc3)n2)CC1` [(S)-4-(6-(3-ethoxyazetidin-1-yl)-2-phenylpyrimidine-4-carboxamido)-5-oxo-5-(4-(pentyloxycarbonyl)piperazin-1-yl)pentanoic acid], the figure is 4100 nM; as for `CCCCCOC(=O)N1CCN(C(=O)[C@H](CCC(=O)O)NC(=O)c2cc(N3CCC(COCCOC)CC3)nc(-c3ccccc3)n2)CC1` [(S)-4-(6-(4-((2-methoxyethoxy)methyl)piperidin-1-yl)-2-phenylpyrimidine-4-carboxamido)-5-oxo-5-(4-(pentyloxycarbonyl)piperazin-1-yl)pentanoic acid], 2000 nM.
As for `CCCCCOC(=O)N1CCN(C(=O)[C@H](CCC(=O)O)NC(=O)c2nc(-c3ccccc3)cc(N3CCC(CNCC)CC3)n2)CC1` [(S)-4-(4-(4-((ethylamino)methyl)piperidin-1-yl)-6-phenylpyrimidine-2-carboxamido)-5-oxo-5-(4-(pentyloxycarbonyl)piperazin-1-yl)pentanoic acid], the figure is 1200 nM.
For the compound `CCCCCOC(=O)N1CCN(C(=O)[C@H](CCC(=O)O)NC(=O)c2nc(-c3ccccc3)cc(N3CCC(OC)CC3)n2)CC1` [(S)-4-(4-(4-methoxypiperidin-1-yl)-6-phenylpyrimidine-2-carboxamido)-5-oxo-5-(4-(pentyloxycarbonyl)piperazin-1-yl)pentanoic acid], the IC50 is above 10000 nM.
As for `CCCCCOC(=O)N1CCN(C(=O)[C@H](CCC(=O)O)NC(=O)c2cc(N3CCC(C(=O)N4CCC4)CC3)nc(-c3ccccc3)n2)CC1` [(S)-4-(6-(4-(azetidine-1-carbonyl)piperidin-1-yl)-2-phenylpyrimidine-4-carboxamido)-5-oxo-5-(4-(pentyloxycarbonyl)piperazin-1-yl)pentanoic acid], the figure is 230 nM.
For `CCCCCOC(=O)N1CCN(C(=O)[C@H](CCC(=O)O)NC(=O)c2nc(-c3ccccc3)cc(N3CCC(CCN)CC3)n2)CC1` [(S)-4-(4-(4-(2-aminoethyl)piperidin-1-yl)-6-phenylpyrimidine-2-carboxamido)-5-oxo-5-(4-(pentyloxycarbonyl)piperazin-1-yl)pentanoic acid] the value was 1400 nM.
For `CCCCCOC(=O)N1CCN(C(=O)[C@H](CCC(=O)O)NC(=O)c2nc(-c3ccccc3)cc(N3CCN(C(N)=O)CC3)n2)CC1` [(S)-4-(4-(4-carbamoylpiperazin-1-yl)-6-phenylpyrimidine-2-carboxamido)-5-oxo-5-(4-(pentyloxycarbonyl)piperazin-1-yl)pentanoic acid] the value was 3600 nM; for `CCCCCOC(=O)N1CCN(C(=O)[C@H](CCC(=O)O)NC(=O)c2nc(-c3ccccc3)cc(N3CCC(C(=O)N(CC)CC)CC3)n2)CC1` [(S)-4-(4-(4-(diethylcarbamoyl)piperidin-1-yl)-6-phenylpyrimidine-2-carboxamido)-5-oxo-5-(4-(pentyloxycarbonyl)piperazin-1-yl)pentanoic acid], 1300 nM; for `CCCCCOC(=O)N1CCN(C(=O)[C@H](CCC(=O)O)NC(=O)c2cc(N3CCC(CCN4CCCC4)CC3)nc(-c3ccccc3)n2)CC1` [(S)-5-oxo-5-(4-(pentyloxycarbonyl)piperazin-1-yl)-4-(2-phenyl-6-(4-(2-(pyrrolidin-1-yl)ethyl)piperidin-1-yl)pyrimidine-4-carboxamido)pentanoic acid], 810 nM.
